In patent US7923441B2, “Enhancement of activity and/or duration of action of soft anti-inflammatory steroids for topical or other local application” (priority 2003, dated 2011):

What was measured:
[1] = test system: forearm of a human volunteer; experiment: Human vasoconstriction (blanching) testing; format: in vivo; details: for AUC (sum of the individual vasoconstriction scores through 36 hours): compound alone; for vasoconstriction activity: tested alone; for effect on the vasoconstrictor activity of loteprednol etabonate: co-applied, 1:5 molar ratio loteprednol etabonate:enhancer, especially at the lower concentrations
Experimental: Test compounds at varying mM concentrations as noted below were dissolved in ethanol/propylene glycol (9/1) solution, and 20 μL of the mixtures were applied to filter paper discs, 0.7 cm in diameter. After ethanol evaporation, each disc was attached to waterproof adhesive tape, then applied to the forearm of a human volunteer and left in place for 4 hours. Groups of 8 forearms were tested at each concentration. The intensity of vasoconstriction was judged at 2, 4, 6, 8, 10, 12, 18, 24 and 36 hours after removal of the discs.
The grading scale for the vasoconstriction activity was as follows: 0, normal skin; 1, slight pallor of indistinct outline; 2, pallor with at least two corners outlined; 3, even pallor with a clear outline of the application sites; 4, very intense pallor. The scores were totaled at each concentration at each time after removal to give a total score at each time interval and an overall total for each concentration. The higher the total score, the greater the blanching or anti-inflammatory effect.

[2] = test system: forearms of human volunteers; experiment: Further human vasoconstriction testing; format: in vivo; details: for AUC (sum of the individual vasoconstriction scores through 24 hours): steroid 0.1 mM alone; for effect on the vasoconstriction activity of BEM-17V: BEM-17V 0.1 mM; for effect on the vasoconstriction activity of BEM-17V / effect on the vasoconstriction activity of LE: enhancer 0.1-0.5 mM; for effect on the vasoconstriction activity of LE: LE 0.1 mM; for synergism with LE: LE:enhancer ratios 1:1, 1:2, 1:3, 1:4 and 1:5
Experimental: The resultant LE and BEM-17V solutions were then mixed (1:1) with vehicle only, or with the Δ^1-CA or Δ^1-MeCA solutions, so that LE solutions (0.1 mM) and BEM-17V solutions (0.1 mM) containing various concentrations of Δ^1-CA (0 to 0.5 mM) or Δ^1-MeCA (0 to 0.5 mM) were obtained. The resultant mixtures (20 μl) were loaded onto circular patches (6.5 mm diameter) that were attached to a water impervious adhesive film (3M). After the evaporation of ethanol, the patches and film were applied to the forearms of human volunteers for 4 hours. […] The grading scale was as follows: 0, normal skin; 1, slight pallor; 2, pallor with at least two corners outlined; 3, even pallor with a clear outline of the application sites; 4, very intense pallor. […] As before, an overall total for each concentration was then obtained.

receptor = target: T1, receptor (Rattus norvegicus, UniProt P06536); details: medium containing 10^−5M cortienic acid as competitor; cited from earlier work
T1 sequence (P06536 1-795): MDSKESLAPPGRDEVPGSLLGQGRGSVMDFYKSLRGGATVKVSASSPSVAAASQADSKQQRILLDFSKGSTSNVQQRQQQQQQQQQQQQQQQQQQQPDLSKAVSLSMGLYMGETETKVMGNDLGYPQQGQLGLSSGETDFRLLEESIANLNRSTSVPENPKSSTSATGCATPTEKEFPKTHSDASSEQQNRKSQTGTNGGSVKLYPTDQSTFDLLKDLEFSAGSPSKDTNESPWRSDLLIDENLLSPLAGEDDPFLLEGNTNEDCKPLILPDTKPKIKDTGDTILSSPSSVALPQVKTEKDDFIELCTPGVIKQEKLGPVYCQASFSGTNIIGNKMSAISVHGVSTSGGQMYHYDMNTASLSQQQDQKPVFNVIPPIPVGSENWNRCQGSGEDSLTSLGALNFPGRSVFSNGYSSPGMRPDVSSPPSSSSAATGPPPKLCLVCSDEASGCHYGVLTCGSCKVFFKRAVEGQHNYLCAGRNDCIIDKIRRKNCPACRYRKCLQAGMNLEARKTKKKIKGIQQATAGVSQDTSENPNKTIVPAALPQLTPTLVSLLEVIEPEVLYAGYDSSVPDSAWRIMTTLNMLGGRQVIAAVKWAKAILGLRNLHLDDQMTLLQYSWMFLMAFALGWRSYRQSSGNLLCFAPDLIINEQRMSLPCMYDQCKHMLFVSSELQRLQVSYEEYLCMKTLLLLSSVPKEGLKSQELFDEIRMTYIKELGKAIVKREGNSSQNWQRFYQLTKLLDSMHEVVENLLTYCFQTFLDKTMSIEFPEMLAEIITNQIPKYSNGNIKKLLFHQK

[3] = control (0 mM) of the Δ^1-CA series
[4] = control (0 mM) of the Δ^1-MeCA series

For `CCOC(=O)O[C@]1(C(=O)OCCl)CC[C@H]2[C@@H]3CCC4=CC(=O)C=C[C@]4(C)[C@H]3[C@@H](O)C[C@@]21C` [Loteprednol Etabonate, chloromethyl 17α-ethoxycarbonyloxy-11β-hydroxyandrosta-1,4-dien-3-one-17β-carboxylate, reference compound], the “AUC (sum of the individual vasoconstriction scores through 36 hours)” value ([1]; 0.1 mM, 20 μL on disc, 4 h application, 8 forearms) was 9, the “AUC (sum of the individual vasoconstriction scores through 36 hours)” value ([1]; 0.5 mM) was 39 and the “AUC (sum of the individual vasoconstriction scores through 36 hours)” value ([1]; 1 mM) was 90. The “AUC (sum of the individual vasoconstriction scores through 36 hours)” value ([1]; 5 mM) was 117, the “AUC (sum of the individual vasoconstriction scores through 36 hours)” value ([1]; 10 mM) was 122 and the vasoconstriction activity [1] was “significant activity”. The “AUC (sum of the individual vasoconstriction scores through 24 hours)” value [2, 3] was 99 and the “AUC (sum of the individual vasoconstriction scores through 24 hours)” value [2, 4] was 114.

In the case of `CCOC(=O)OC1(C(=O)O)CCC2C3CCC4=CC(=O)C=CC4(C)C3C(O)CC21C` (stereo not drawn) [the corresponding 17α-ethyl carbonate, 17α-ethoxycarbonyloxy-11β-hydroxyandrost-1,4-dien-3-one-17β-carboxylic acid], the “intrinsic activity in receptor binding studies” value (shortened to “intrinsic activity”) (receptor) is given as “inactive”.

For `COC(=O)[C@@]1(O)CCC2C3CCC4=CC(=O)C=CC4(C)C3C(O)CC21C` (stereo partly drawn) [Δ^1-Cortienic Acid Methyl Ester, methyl 11β,17α-dihydroxyandrosta-1,4-dien-3-one-17β-carboxylate], the “effect on the vasoconstrictor activity of loteprednol etabonate” value [1] was “significantly enhanced”, the “AUC (sum of the individual vasoconstriction scores through 36 hours)” value ([1]; 0.5 mM) was 0 and the “AUC (sum of the individual vasoconstriction scores through 36 hours)” value ([1]; 2.5 mM) was 0. For the same molecule, the “AUC (sum of the individual vasoconstriction scores through 36 hours)” value ([1]; 5 mM) was 0, the “AUC (sum of the individual vasoconstriction scores through 36 hours)” value ([1]; 25 mM) was 0 and the “AUC (sum of the individual vasoconstriction scores through 36 hours)” value ([1]; 50 mM) was 0. For the same molecule, the vasoconstriction activity [1] was “neither Δ^1-cortienic acid nor Δ^1-cortienic acid methyl ester had any vasoconstriction activity”, the “effect on the vasoconstriction activity of BEM-17V” value [2] was “no activity-increasing effect” and the “effect on the vasoconstriction activity of LE” value [2] was “increased the vasoconstriction activity of LE”. For the same molecule, the “synergism with LE” value [2] was “synergistic results”.

In the case of `CC12C=CC(=O)C=C1CCC1C2C(O)CC2(C)C1CC[C@]2(O)C(=O)O` (stereo partly drawn) [Δ^1-Cortienic Acid, 11β,17α-dihydroxyandrosta-1,4-dien-3-one-17β-carboxylic acid], the “effect on the vasoconstrictor activity of loteprednol etabonate” value [1] was “significantly enhanced”, the “AUC (sum of the individual vasoconstriction scores through 36 hours)” value ([1]; 0.5 mM) was 0 and the “AUC (sum of the individual vasoconstriction scores through 36 hours)” value ([1]; 2.5 mM) was 0. The “AUC (sum of the individual vasoconstriction scores through 36 hours)” value ([1]; 5 mM) was 0, the “AUC (sum of the individual vasoconstriction scores through 36 hours)” value ([1]; 25 mM) was 0 and the “AUC (sum of the individual vasoconstriction scores through 36 hours)” value ([1]; 50 mM) was 0. The vasoconstriction activity [1] was “neither Δ^1-cortienic acid nor Δ^1-cortienic acid methyl ester had any vasoconstriction activity”, the “effect on the vasoconstriction activity of BEM-17V” value [2] was “no activity-increasing effect” and the “effect on the vasoconstriction activity of LE” value [2] was “increased the vasoconstriction activity of LE”. The “synergism with LE” value [2] was “synergistic results” and the “intrinsic activity” value (receptor) was “inactive”.

In the case of “betamethasone 17-valerate [Betamethasone Valerate, reference compound]”, the “AUC (sum of the individual vasoconstriction scores through 24 hours)” value [2, 3] was 107 and the “AUC (sum of the individual vasoconstriction scores through 24 hours)” value [2, 4] was 112.

For “chloromethyl 17α-ethoxycarbonyloxy-11β-hydroxyandrosta-1,4-dien-3-one-17β-carboxylate [Loteprednol Etabonate, reference compound]”, the “intrinsic activity” value (receptor) is given as “intrinsically active”.
